row,melting point [°C],SMILES
1,160,O=C(CC1CCN(CCCn2c(=O)[nH]c3ccccc32)CC1)c1cccc(Cl)c1
2,148 to 150,O=C1CCC(N2Cc3c(OCc4ccc(Cn5cnc(C(F)(F)F)c5)cc4)cccc3C2=O)C(=O)N1 (configuration not stated)
3,310,COc1ccc(OC)c(C(Nc2ccc(C(=N)N)cc2)C(=O)O)c1 (racemic)
4,80 to 82,O=C(NOC(=O)Oc1ccccc1)Oc1ccccc1
5,112 to 114,Cc1cc(F)ccc1C1=C(c2ccc(S(C)(=O)=O)cc2)CCC1
6,173 to 175,COC(=O)c1ccc(CNC(C)=O)cc1S(N)(=O)=O
7,120 to 126,CCCCn1nc(C)c(CO)c1Cc1ccc(-c2ccccc2-c2nnn[nH]2)cc1
8,70,Cc1ccc(S(=O)(=O)OC(C#N)(c2ccccc2)C(F)(F)F)cc1 (configuration not stated)
9,136 to 139,COc1c(N2CCNC(C3CC3)C2)c(F)cc2c(=O)c(C(=O)O)cn([C@@H]3C[C@@H]3F)c12 (some centres not stated)
10,79.5 to 80,CC(C)(C)C(=O)c1ccc(COc2ccccc2)cc1
11,156 to 159,Cc1nc(N2CCN(C)CC2)nc(N)c1-c1cc(Cl)cc(Cl)c1Cl
12,164 to 166,CC1=C(CC(=O)O)c2cc(F)ccc2C1
13,172 to 173,CC(=O)CC(=S)SCc1cn(C(c2ccccc2)(c2ccccc2)c2ccccc2)nn1
14,103 to 105,CCOP(=O)(CCN1CCCCNc2c1c(=O)c2=O)OCC
15,232,O=C(Nc1ncccn1)Nc1cccc2c1C1CCCCN1C2=O (configuration not stated)
16,212 to 221,CC(C)(C)OC(=O)N1CCn2c(c(C(N)=O)c(C#N)c2C2CCOCC2)C1
17,236,C=C(C)OC(=O)N1c2cnccc2NC(=O)C1C (racemic)
18,> 300,O=c1c2cc(Cl)c(Cl)cc2nc2n1CS(=O)(=O)N2
19,100,CN(C)c1ccccc1SCc1noc(-c2ccccc2)n1
20,238 to 240,Cc1nc2ccc(C#N)cc2[nH]1
21,48 to 50,CCCCCCCCCCCCCCCC(=O)NCCCN1CCCCC1C (configuration not stated)
22,98 to 100,CCOC(=O)c1cccn2cc(C(OCC)OCC)nc12
23,203 to 204,Cc1nc(-n2ccc(OCc3ccccc3)cc2=O)[nH]c1C(=O)NCc1cccnc1
24,159 to 160,Cc1ccc(-c2cc(C(=O)O)c(=O)n(CC(C)C)n2)cc1F
25,152 to 153,CCOC(=O)C1(O)c2ccccc2S(=O)(=O)N1Cc1ccc(Br)cc1 (configuration not stated)

row,melting point [°C],SMILES
1,231 to 232,Nc1ncnc2c1ncn2Cc1ccccc1
2,159 to 161,OC1CCN(Cc2ccc(Br)cc2)CC1N1CCC(c2ccccc2)CC1 (configuration not stated)
3,257 to 259,CC(C)(C)C(=O)c1c[nH]c2ncc(N3C(=O)CCc4ccccc43)nc12
4,194 to 195,CC1Cc2cc3c(cc2C1)CC(C(=N)NO)C3
5,93 to 94,OCCN=C1c2ccccc2CCc2ccccc21
6,100,COc1ccccc1N1CCN(CCCCCC(=O)N2Cc3ccccc3C2)CC1
7,260 to 265,CS(=O)(=O)Nc1cccc(C=C2SC(=S)NC2=O)c1
8,151 to 153,CSc1ccc(NC(=O)N(O)C2CCCCC2)cc1
9,206 to 215,Clc1ccc2c(c1)SCc1cccnc1C2=C1CCNCC1
10,92 to 93,Cc1cc(CC(=O)c2ccc(F)cc2)on1
11,175,Cc1nn(C(=O)Oc2ccccc2)c(=O)n1N
12,188,COc1ccc2ccccc2c1C(Nc1ccccc1C)C(=O)O (configuration not stated)
13,63 to 64,Cc1onc(-c2cccc(C(F)(F)F)c2)c1CCC(=O)O
14,112 to 115,COc1cc2c(cc1OC)C(Oc1ccc(Cl)cc1)CN(C)C2 (configuration not stated)
15,198 to 200,CC(=O)c1ccc(N2CCN(Cc3n[nH]c4ccccc34)CC2)cc1
16,89 to 90,CCCCCCCCCC(=O)OC(=C(OC(=O)CCCCCCCCC)c1ccccn1)c1ccccn1
17,199 to 200,Cc1nn(-c2ccccn2)c2[nH]c3ccccc3c(=O)c12
18,210,Cc1cc(-c2cc(C(F)(F)F)n3cnc(-c4cccnc4)c3n2)ccc1Cl
19,57 to 60,COCCNC(=O)c1ccc2c(c1)C=CC(C)(C)O2
20,205 to 217,COC(=O)CC(=O)NC[C@H]1CN(c2ccc3c(c2)CCCc2cnoc2-3)C(=O)O1
21,320,O=C1Nc2cc(Cl)ccc2C(=O)C1c1csc2ccccc12 (configuration not stated)
22,56 to 57,Clc1cncc(-n2ccc3ccccc32)c1
23,176 to 177,CC(C)C(C(=O)O)N1CCCNC1=O (configuration not stated)
24,131 to 132,O=C(Nc1c(Cl)cncc1Cl)c1cc(OC2CCCC2)c(OC(F)F)cn1
25,265 to 268,O=C1NC(=O)c2c1c(-c1ccccc1Cl)cc1[nH]c3ccc(C(O)CO)cc3c21 (configuration not stated)

row,melting point [°C],SMILES
1,69 to 71,O=C(CCCN1CCc2ccccc2C1)c1ccc(F)cc1
2,97 to 99,C#CCCOC(c1ccccc1)(c1ccccc1)c1ccccc1
3,147 to 149,CCCCNC(=O)c1ccc(S(=O)(=O)CCCn2c(CCC)nc3c(N)nc(C)c(C)c32)cc1
4,67.5,N#CC(C#N)(CC=C(Cl)Cl)Cc1ccc(Cl)cc1
5,215 to 217,CC(C)(C)N(Cc1ccccc1)CC(O)COc1cccc2c1CNC(=O)N2 (configuration not stated)
6,140 to 143,Cc1c(Br)c[nH]c1C=O
7,92 to 96,COC(=O)c1ccc(Cn2c(C(=O)C3CCN(CCC4(c5ccccc5)CCN(C(=O)c5cc(OC)c(OC)c(OC)c5)C4)CC3)nc3ccccc32)cc1 (configuration not stated)
8,232 to 234,CC(=O)Nc1cc(-n2c(-c3ccccc3)cc3c2CCCC3)cc(C(=O)O)c1O
9,232,O=C(O)c1cnn2c(C(F)F)cc(-c3ccc(Cl)cc3)nc12
10,240 to 241,COC(=O)c1cc(O)nc2ccccc12
11,134 to 136,Cc1nc(N2CCc3ccccc3CC2)c(C#N)c(=O)n1N(C)C
12,> 300,O=[N+]([O-])c1ccc2c(c1)[nH]c1cc([N+](=O)[O-])ccc12
13,92 to 93,CC(C)(C)OC(=O)Nc1ccn2nc(N3CCOCC3)nc2c1
14,95 to 100,CC(C)(C)c1cc(C(=O)Nc2cccc(SCc3cccnc3)c2)ccc1O
15,210 to 212,CCOC(=O)c1cn(C)c2cc(F)c(F)cc2c1=O
16,168 to 170,O=C1OCCN1N=C1CCOc2ccc([N+](=O)[O-])cc21
17,112 to 115,O=C(NCCCN1CCC(c2ccccc2)(c2ccccc2)CC1)N1C(=O)OCC1c1ccc(F)c(Cl)c1 (configuration not stated)
18,117 to 122,COc1ccc(-c2ccc3c(c2)c(C)c(-c2ccccc2)n3Cc2ccccc2)cc1
19,293 to 295,O=C(O)c1cccc(-c2cc(-c3ccc(Cl)cc3)on2)c1
20,58,COc1ccc(C2(O)CCCN(Cc3ccccc3)C2)cc1 (configuration not stated)
21,201,CC(C)C(=CC(N)C(=O)O)CP(=O)(O)O (configuration not stated)
22,118 to 119,CC1(C)CC(=O)c2cc3c(cc2O1)OCCO3
23,61 to 63,CCCCCCCCCCCCCCCCCNC(=O)O[C@@H]1CCCO[C@H]1COCc1ccccc1 (relative stereo)
24,137,Cc1cccc(C(N)c2ccc3nc(NC4CCN(CCO)CC4)n(Cc4nc(C)ccc4O)c3c2)c1 (configuration not stated)
25,199 to 202,C=C1CC2CC(O)CCC2(C)C2CC(O)C3(C)C(C(C)CCC(=O)O)CCC3C12 (configuration not stated)

row,melting point [°C],SMILES
1,125,CN(C)CCNC(=O)c1c[nH]c(=S)n1C1CCc2c(F)cc(F)cc2C1 (configuration not stated)
2,124 to 127,CCC1(C)SC(N(C)C(=O)NC)=NN1C(=O)C(C)(C)C (configuration not stated)
3,103 to 106,NC(=O)CCN(CCC(N)=O)Cc1ccccc1
4,220 to 222,O=C(Nc1cccc(-c2ccnc3c(C(=O)c4cccs4)cnn23)c1)c1ccncc1
5,263,CC1N(CCCCS(=O)(=O)O)c2ccc3ccccc3c2C1(C)C (configuration not stated)
6,124 to 126,CC1(C)N=C(Cl)c2cc(C#N)ccc2O1
7,180 to 184,Cc1ccc(S(=O)(=O)ON=C2CCOc3cc(Cl)c(Cl)cc32)cc1
8,205 to 206,CN(C)C(=O)COC(=O)COc1ccc(C(=O)Nc2ccccc2Sc2ccccc2-c2nnn[nH]2)cc1
9,223 to 225,CCCCOc1ccc(NS(=O)(=O)c2ccc(N3CCNC3=O)cc2)cc1
10,56,COCc1cc(N2CCOCC2)ncn1
11,238 to 239,CC(C)C(NC(=O)NCc1cccnc1)C(=O)NC(Cc1ccccc1)C(O)C(Cc1ccccc1)NC(=O)C(NC(=O)NCc1cccnc1)C(C)C (configuration not stated)
12,222 to 224,CCS(=O)(=O)c1ccc(C(=O)NCc2ccc3c(c2)CN(C2CCC(=O)NC2=O)C3=O)cc1 (configuration not stated)
13,172,CCNC1=NN(c2cccc(C(F)(F)F)c2)CC1
14,250,Cc1ccc(-c2nc(C)c(C)c(=O)[nH]2)cc1
15,241 to 243,CC(C)c1ccc(N(Cc2ccc(O)cc2)C(=O)C2CCCc3c(O)cccc32)cc1 (configuration not stated)
16,174 to 175,CCCCNc1cc(CNCc2cccc(O)c2)cc(S(N)(=O)=O)c1Oc1ccccc1
17,212 to 214,COCc1cccc2sc(C(=O)O)cc12
18,> 300,CCOC(=O)C1Nc2cc(Cl)c(Cl)cc2NC1=O (configuration not stated)
19,230 to 232,NC(=O)NCc1cccc(-c2csc(N=C(N)N)n2)c1
20,184,CNS(=O)(=O)N1CCNC1=O
21,68 to 71,Cc1noc(NS(=O)(=O)c2ccc(NCCc3ccccc3)cc2-c2ccc(CC(C)C)cc2)c1C
22,230 to 232,COc1cc(F)ccc1N1CCN(CCCn2c(=O)[nH]c3c(c2=O)CCCC3)CC1
23,163 to 165,CNc1nc(C2(S(C)=O)C=CC=C(c3ccccc3)C2)c2cc(OC)c(OC)cc2n1 (configuration not stated)

row,SMILES,melting point [°C]
1,Cc1nnc(CN2CCCC2)n1-c1ccc(Cl)cc1C(=O)c1ccccc1,174 to 176
2,Cc1ccc(C#N)c(C)c1COC(=O)[C@H]1[C@@H](C=C(Cl)C(F)(F)F)C1(C)C (relative stereo),98
3,CCOc1cc([N+](=O)[O-])c2c(c1)C1(C)CCN(C)C1N2C (configuration not stated),106 to 108
4,O=C1Nc2cccc(-c3cccc(NC(=O)c4ccc(S(=O)(=O)F)cc4)c3)c2/C1=C/c1ccc[nH]1,148 to 151
